For 1 molecule, IC50 results are on record in ChEMBL document CHEMBL3638998, “17Beta-hydroxysteroid dehydrogenase type 1 inhibitors for the treatment of hormone-related diseases” (2013).

The data set deals with CYP2C9 (Homo sapiens, UniProt P11712). The data set can be described thus: Inhibition Assay: Inhibition assay using P450 CYP enzymes.
CYP2C9, sequence (P11712 whole entry): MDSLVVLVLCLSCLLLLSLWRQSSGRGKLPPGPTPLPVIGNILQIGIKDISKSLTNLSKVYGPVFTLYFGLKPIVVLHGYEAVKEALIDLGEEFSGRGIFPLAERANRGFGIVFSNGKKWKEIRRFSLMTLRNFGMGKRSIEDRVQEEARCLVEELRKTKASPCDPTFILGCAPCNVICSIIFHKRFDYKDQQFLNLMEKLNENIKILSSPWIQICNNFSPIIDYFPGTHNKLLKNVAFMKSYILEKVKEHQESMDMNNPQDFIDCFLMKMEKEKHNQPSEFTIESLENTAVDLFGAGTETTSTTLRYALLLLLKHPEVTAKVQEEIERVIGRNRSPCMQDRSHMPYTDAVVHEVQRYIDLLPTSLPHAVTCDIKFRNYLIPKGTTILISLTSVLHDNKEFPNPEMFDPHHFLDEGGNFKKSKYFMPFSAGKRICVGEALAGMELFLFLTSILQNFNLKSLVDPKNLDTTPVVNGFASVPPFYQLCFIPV

The IC50 is the concentration at which inhibition is half-maximal. Low readings indicate greater potency, high ones weaker potency. In the case of `CNC(=O)/C=C/c1cc(OC)cc(-c2ccc3cc(OC)ccc3c2)c1`, half-maximal inhibition (IC50) required 30 nM.
